This series is described as follows: Waters ACQUITY UPLC BEH C18, 100 × 2.1 mm, 1.7 µm, 40 °C, 0.3 to 0.4 mL/min, estimated dead time 0.63 min; A: water + 0.1% formic acid; B: methanol + 0.1% formic acid; gradient (min/%B) 0/0.5 0.1/0.5 10/80 10.1/99.5 12/99.5. As to conditions: stereoisomer not certain.

As to `CC1CCC2(C(=O)OC3OC(COC4OC(CO)C(OC5OC(C)C(O)C(O)C5O)C(O)C4O)C(O)C(O)C3O)CCC3(C)C(=CCC4C5(C)CC(O)C(O)C(C)(CO)C5CCC43C)C2C1C` (stereo not given), the LC retention time was 5.21 min. The same measure for `O=C1CC(c2ccc(O)c(O)c2)Oc2cc(O)cc(O)c21` (stereo not given): 5.35 min; for `NC(=O)CCC(NC(=O)CCCc1ccccc1)C(=O)O` (stereo not given): 2.88 min.

Take `O=C(O)c1cc(O)c(O)c(O)c1`: the LC retention time is 2.04 min. Next, `O=c1cc(-c2ccc(O)c(O)c2)oc2cc(O)cc(O)c12`: 5.34 min; `O=c1c(-c2ccc(O)cc2)coc2cc(OC3OC(CO)C(O)C(O)C3O)ccc12` (stereo not given): 3.65 min; `O=C1CC(c2ccc(O)cc2)Oc2cc(O)ccc21` (stereo not given): 5.3 min. With `OCC1OC(Oc2cc3c(O)cc(O)cc3[o+]c2-c2cc(O)c(O)c(O)c2)C(O)C(O)C1O` (stereo not given), the LC retention time is 2.61 min.

Turning to `COc1cc(-c2cc(=O)c3c(O)cc(OC4OC(C(=O)O)C(O)C(O)C4OC4OC(C(=O)O)C(O)C(O)C4O)cc3o2)ccc1O` (stereo not given), the LC retention time was 4.05 min.

Turning to `O=C(CCc1ccc(O)cc1)c1c(O)c(C2OC(CO)C(O)C(O)C2O)c(O)c(C2OC(CO)C(O)C(O)C2O)c1O` (stereo not given), the LC retention time is 4.01 min. For `COc1cc2c(c(OC)c1OC)-c1ccc(OC)c(=O)cc1C(N(C)Cc1ccccc1O)CC2` (stereo not given), the LC retention time was 5.03 min.

Consider `COc1cc2c(c(OC)c1OC)-c1c(cc(OC)c(OC)c1OC)CC(C)(O)C(C)C2` (stereo not given), for which the LC retention time is 7.59 min. Take `CC(C)CC(NC(=O)C(C)N)C(=O)O` (stereo not given): the LC retention time was 2.36 min. As for `COc1ccc(-c2cc(=O)c3c(O)cc(OC4OC(CO)C(O)C(O)C4OC4OC(C)C(O)C(O)C4O)cc3o2)cc1` (stereo not given), the LC retention time was 5.26 min. Next, `O=C(O)C1OC(OC2C(Oc3cc(O)c4c(=O)cc(-c5ccc(O)cc5)oc4c3)OC(C(=O)O)C(O)C2O)C(O)C(O)C1O` (stereo not given): 4.05 min.

Turning to `CC1CCC2(NC1)OC1CC3C4CC=C5CC(OC6OC(CO)C(OC7OC(CO)C(O)C(OC8OCC(O)C(O)C8O)C7OC7OC(CO)C(O)C(O)C7O)C(O)C6O)CCC5(C)C4CCC3(C)C1C2C` (stereo not given), the LC retention time is 4.72 min. In the case of `CC(CCC1(O)OC2CC3C4CCC5CC(OC6OC(CO)C(O)C(O)C6OC6OC(CO)C(O)C(O)C6O)C(O)CC5(C)C4CCC3(C)C2C1C)COC1OC(CO)C(O)C(O)C1O` (stereo not given), the LC retention time was 4.64 min. As for `CS(=O)CCCCCCCCC(N)C(=O)O` (stereo not given), the LC retention time is 2.74 min. For `COc1cc(-c2cc(=O)c3c(O)cc(OC4OC(CO)C(O)C(O)C4O)cc3o2)cc(OC)c1O` (stereo not given), the LC retention time was 4.57 min.

Turning to `O=C(Cc1c[nH]c2ccccc12)NC(Cc1c[nH]c2ccccc12)C(=O)O` (stereo not given), the LC retention time was 6.19 min.

On to `CN1CCC23c4ccccc4NC1C21CCN(C)C3Nc2ccccc21`, for which the LC retention time was 2.57 min. The same measure for `C=CCS(=O)CC(NCC1(O)OCC(O)C(O)C1O)C(=O)O` (stereo not given): 1.66 min; for `O=C(O)CC(=O)NC(Cc1c[nH]c2ccccc12)C(=O)O` (stereo not given): 4.35 min; for `O=C1CC(c2ccc(O)cc2)Oc2c1c(O)cc(O)c2C1OC(CO)C(O)C(O)C1O` (stereo not given): 3.04 min. On to `CCC(C)C(N)C(=O)NC(CC(=O)O)C(=O)O` (stereo not given), for which the LC retention time is 1.87 min. Next, `O=C(O)C=Cc1ccc(O)cc1`: 2.71 min; `OCC1OC(Oc2cc3c(O)cc(O)cc3[o+]c2-c2ccc(O)c(O)c2)C(O)C(O)C1O` (stereo not given): 2.91 min; `COc1cc(C=CC(=O)OCC2OC(OC3C(c4c(O)cc5oc(-c6ccc(O)cc6)cc(=O)c5c4O)OC(CO)C(O)C3O)C(O)C(O)C2O)ccc1O` (stereo not given): 4.21 min. `O=C(CCc1ccc(O)cc1)c1c(O)cc(O)cc1OC1OC(CO)C(O)C(O)C1O` (stereo not given): the LC retention time was 4.73 min. Next, `CS(=O)CCCCCCCN` (stereo not given): 2.08 min. Next, `CC(C)=CCCC(C)(OC1OC(COC2OCC(O)C(O)C2O)C(O)C(O)C1O)C1CCC2(C)C1C(O)CC1C3(C)CCC(OC4OC(CO)C(O)C(O)C4OC4OC(CO)C(O)C(O)C4O)C(C)(C)C3CCC12C` (stereo not given): 6.14 min. Take `COC(=O)C1C(O)CCC2CN3CCc4c([nH]c5ccccc45)C3CC21` (stereo not given): the LC retention time was 4.35 min. The same measure for `CCC(C)=CCCC(C)(OC1OC(COC2OCC(O)C(O)C2O)C(O)C(O)C1O)C1CCC2(C)C3CCC4C(C)(C)C(OC5OC(CO)C(O)C(O)C5OC5OC(CO)C(O)C(O)C5O)CCC4(C)C3CC(O)C12` (stereo not given): 6.19 min.

In the case of `CC1OC(OC2C(O)C(C)OC(OCC3OC(Oc4c(-c5ccc(O)cc5)oc5cc(O)cc(O)c5c4=O)C(O)C(O)C3O)C2O)C(O)C(O)C1O` (stereo not given), the LC retention time is 3.98 min. Consider `CC1=C(O)C(=O)CC(OC2CC(C)(C)CC3C4=CCC5C6(C)CCC(OC7OC(C(=O)O)C(O)C(O)C7OC7OC(CO)C(O)C(O)C7OC7OC(C)C(O)C(O)C7O)C(C)(CO)C6CCC5(C)C4(C)CCC23C)O1` (stereo not given), for which the LC retention time is 7.68 min. The same measure for `COc1cc(-c2[o+]c3cc(O)cc(OC4OC(CO)C(O)C(O)C4O)c3cc2OC2OC(CO)C(O)C(O)C2O)ccc1O` (stereo not given): 2.79 min; for `CC(=O)OC1CC(COC2OC(CO)C(O)C(O)C2OC2OC(CO)C(O)C(O)C2O)CNC12OC1CC3C4CCC5CC(OC6OC(CO)C(OC7OC(CO)C(OC8OCC(O)C(O)C8O)C(O)C7OC7OC(CO)C(O)C(O)C7O)C(O)C6O)CCC5(C)C4CCC3(C)C1C2C` (stereo not given): 3.84 min; for `CCC(C)C(=O)OC1C(O)C2C(CN3CC(C)CCC3C2(C)O)C2CC34OC5(O)C(OC(=O)C(C)(O)C(C)OC(C)=O)CCC3(C)C5CC(O)C4C21O` (stereo not given): 5.04 min. For the compound `O=c1[nH]c(=O)c2[nH]cnc2[nH]1`, the LC retention time was 1.75 min. On to `CC(C)=CCc1cc(-c2coc3cc(O)c(CC=C(C)C)c(O)c3c2=O)cc(O)c1O`, for which the LC retention time was 8.06 min. As to `COc1ccc(-c2coc3cc(OC4OC(COC(=O)CC5CCNCC5)C(O)C(O)C4O)c(OC)cc3c2=O)cc1` (stereo not given), the LC retention time was 4.67 min. In the case of `CC(C)=CCc1cc(CCc2cc(O)c(CC=C(C)C)c(O)c2)ccc1O`, the LC retention time is 9.01 min. `CC(O)(CC(=O)O)CC(=O)OCC1OC(Oc2c(-c3ccc(O)cc3)oc3cc(OC4OC(CO)C(O)C(O)C4O)cc(O)c3c2=O)C(O)C(O)C1O` (stereo not given): the LC retention time was 3.34 min. Take `COc1cc(-c2oc3cc(O)cc(O)c3c(=O)c2OC2OC(CO)C(O)C(O)C2O)ccc1OC1OC(CO)C(O)C(O)C1O` (stereo not given): the LC retention time was 3.23 min.

For `O=C(C=Cc1ccc(O)c(O)c1)OC(Cc1ccc(O)c(O)c1)C(=O)O` (stereo not given), the LC retention time was 4.6 min.

With `Oc1ccc(C2Oc3cc(O)cc(O)c3CC2O)cc1` (stereo not given), the LC retention time is 4.91 min. For the compound `Nc1ncnc2c1ncn2C1CC(O)C(CO)O1` (stereo not given), the LC retention time was 1.93 min.

As for `CC(=O)OCC1OC(Oc2c(-c3ccc(O)c(O)c3)oc3cc(O)cc(O)c3c2=O)C(O)C(O)C1O` (stereo not given), the LC retention time is 4.42 min. Take `O=C(CCc1ccccc1)c1c(O)cc(O)cc1OC1OC(CO)C(O)C(O)C1O` (stereo not given): the LC retention time was 4.85 min. Next, `O=S(=O)(O)ON=C(Cc1ccccc1)SC1OC(CO)C(O)C(O)C1O` (stereo not given): 2.83 min; `O=c1cc(-c2ccc(O)cc2)oc2c(C3OC(CO)C(O)C(O)C3O)c(O)c(C3OC(CO)C(O)C(O)C3O)c(O)c12` (stereo not given): 3.3 min; `Cc1ccc2ccc3ccc(C)nc3c2n1`: 3.47 min. As for `COc1ccc(C2OCC3C(c4ccc(OC5OC(CO)C(O)C(O)C5O)c(OC)c4)OCC23)cc1OC` (stereo not given), the LC retention time is 5.13 min. `CC(C)=CCc1cc(C=CC(=O)c2ccc(O)cc2O)ccc1O`: the LC retention time was 8.61 min. Next, `CC1CCC2C(C)C3C(CC4C5CC=C6CC(O)CCC6(C)C5CCC43C)N2C1` (stereo not given): 5.99 min; `O=C(O)CC1CCC(=O)C1CC=CCCO` (stereo not given): 3.39 min; `COc1cc(-c2oc3cc(OC4OC(CO)C(O)C(O)C4O)cc(O)c3c(=O)c2OC2OC(CO)C(O)C(O)C2O)cc(OC2OC(CO)C(O)C(O)C2O)c1O` (stereo not given): 2.8 min. The same measure for `CC1OC(Oc2cc(O)c3c(=O)c(OC4OC(CO)C(O)C(O)C4O)c(-c4ccc(O)cc4)oc3c2)C(O)C(O)C1O` (stereo not given): 3.7 min. Turning to `C1CCN2CC3CC(CN4CCCCC34)C2C1` (stereo not given), the LC retention time was 2.33 min. The same measure for `CC1(C)CC2C3=CCC4C5(C)CCC(O)C(C)(CO)C5CCC4(C)C3(C)CCC2(C)C(O)C1O` (stereo not given): 8.94 min; for `O=C(O)CCCC(=O)O`: 2.53 min; for `CS(=O)CCCCC#N` (stereo not given): 2.21 min.

For `CC1OC(OCC2OC(Oc3c(-c4ccc(O)cc4)oc4cc(O)cc(O)c4c3=O)C(O)C(O)C2O)C(O)C(O)C1O` (stereo not given), the LC retention time was 4 min. The same measure for `CC1OC(Oc2cc(O)c3c(=O)c(OC4OC(CO)C(O)C(O)C4OC4OC(C)C(O)C(O)C4O)c(-c4ccc(O)c(O)c4)oc3c2)C(O)C(O)C1O` (stereo not given): 3.09 min.

As for `CC(C)=CCCC(C)(O)C1CCC2(C)C1C(O)CC1C3(C)CCC(O)C(C)(C)C3C(OC3OC(CO)C(O)C(O)C3OC3OC(C)C(O)C(O)C3O)CC12C` (stereo not given), the LC retention time is 6.25 min. Next, `O=C(C=Cc1ccc(O)cc1)Oc1cc(O)c2c(=O)c(OC3OC(CO)C(O)C(O)C3O)c(-c3ccc(O)cc3)oc2c1` (stereo not given): 2.35 min.

Take `O=c1c2ccccc2nc2n1CCC2`: the LC retention time was 3.94 min. Next, `CC(C)C(N)C(=O)NC(Cc1ccccc1)C(=O)O` (stereo not given): 3.23 min; `CC(CSCC(NC(=O)CCC(N)C(=O)O)C(=O)NCC(=O)O)C(=O)O` (stereo not given): 2.36 min.

Turning to `COc1ccc2c(c1)OC1c3ccc(O)cc3OCC21` (stereo not given), the LC retention time is 5.92 min.

(Values after the RepoRT retention time repository.)
